Experimental data as given in PMC9856672, “SGC-CAMKK2-1: A Chemical Probe for CAMKK2” (Cells, 2023).

How the values were obtained:
MRCKB = target: T1, MRCKB (Homo sapiens, UniProt Q9Y5S2); assay: KINOMEscan 1 μM, MRCKB; assay type: binding; conditions: 1000 nM; Entrez CDC42BPB; read-out: Percent Control
T1 construct: purchased Eurofins DiscoverX KINOMEscan
From the text: (§1) Supplement cells-12-00287-s001.zip/File S2. KinomeScan data for the CAMKK2 probe and negative control.xlsx, sheet "SGC-CAMKK2-1" | column: Percent Control

EGFR(L858R) = target: T2, EGFR(L858R) (Homo sapiens, UniProt P00533, L858R); assay: KINOMEscan 1 μM, EGFR(L858R); assay type: binding; conditions: 1000 nM; Entrez EGFR; read-out: Percent Control
T2 construct: purchased Eurofins DiscoverX KINOMEscan
From the text: as §1

FLT3(N841I) = target: T3, FLT3(N841I) (Homo sapiens, UniProt P36888, N841I); assay: KINOMEscan 1 μM, FLT3(N841I); assay type: binding; conditions: 1000 nM; Entrez FLT3; read-out: Percent Control
T3 construct: purchased Eurofins DiscoverX KINOMEscan
From the text: as §1

TRKC = target: T4, TRKC (Homo sapiens, UniProt Q16288); assay: KINOMEscan 1 μM, TRKC; assay type: binding; conditions: 1000 nM; Entrez NTRK3; read-out: Percent Control
T4 construct: purchased Eurofins DiscoverX KINOMEscan
From the text: as §1

LRRK2(G2019S) = target: T5, LRRK2(G2019S) (Homo sapiens, UniProt Q5S007, G2019S); assay: KINOMEscan 1 μM, LRRK2(G2019S); assay type: binding; conditions: 1000 nM; Entrez LRRK2; read-out: Percent Control
T5 construct: purchased Eurofins DiscoverX KINOMEscan
From the text: as §1

PKN1 = target: T6, PKN1 (Homo sapiens, UniProt Q16512); assay: KINOMEscan 1 μM, PKN1; assay type: binding; conditions: 1000 nM; Entrez PKN1; read-out: Percent Control
T6 construct: purchased Eurofins DiscoverX KINOMEscan
From the text: as §1

CSNK2A1 = target: T7, CSNK2A1 (Homo sapiens, UniProt P68400); assay: KINOMEscan 1 μM, CSNK2A1; assay type: binding; conditions: 1000 nM; Entrez CSNK2A1; read-out: Percent Control
T7 construct: purchased Eurofins DiscoverX KINOMEscan
From the text: as §1

CDK4-cyclinD1 = target: T8, CDK4-cyclinD1 (Homo sapiens, UniProt P11802); assay: KINOMEscan 1 μM, CDK4-cyclinD1; assay type: binding; conditions: 1000 nM; Entrez CDK4; read-out: Percent Control
T8 construct: purchased Eurofins DiscoverX KINOMEscan
From the text: as §1

MAP3K1 = target: T9, MAP3K1 (Homo sapiens, UniProt Q13233); assay: KINOMEscan 1 μM, MAP3K1; assay type: binding; conditions: 1000 nM; Entrez MAP3K1; read-out: Percent Control
T9 construct: purchased Eurofins DiscoverX KINOMEscan
From the text: as §1

EGFR(L861Q) = target: T10, EGFR(L861Q) (Homo sapiens, UniProt P00533, L861Q); assay: KINOMEscan 1 μM, EGFR(L861Q); assay type: binding; conditions: 1000 nM; Entrez EGFR; read-out: Percent Control
T10 construct: purchased Eurofins DiscoverX KINOMEscan
From the text: as §1

SIK = target: T11, SIK (Homo sapiens, UniProt P57059); assay: DiscoverX KINOMEscan binding assay at 1 μM, SIK; conditions: SIK (SIK1); Compound Concentration 1000 nM; read-out: Percent Control
T11 construct: purchased Eurofins DiscoverX KINOMEscan
From the text: as §1

PIK3CA(Q546K) = target: T12, PIK3CA(Q546K) (Homo sapiens, UniProt P42336, Q546K); assay: DiscoverX KINOMEscan binding assay at 1 μM, PIK3CA(Q546K); conditions: Compound Concentration 1000 nM, read-out: Percent Control
T12 construct: purchased Eurofins DiscoverX KINOMEscan
From the text: as §1

CLK2 = target: T13, CLK2 (Homo sapiens, UniProt P49760); assay: KINOMEscan 1 μM, CLK2; assay type: binding; conditions: 1000 nM; Entrez CLK2; read-out: Percent Control
T13 construct: purchased Eurofins DiscoverX KINOMEscan
From the text: as §1

MEK4 = target: T14, MEK4 (Homo sapiens, UniProt P45985); assay: KINOMEscan 1 μM, MEK4; assay type: binding; conditions: 1000 nM; Entrez MAP2K4; read-out: Percent Control
T14 construct: purchased Eurofins DiscoverX KINOMEscan
From the text: as §1

BLK = target: T15, BLK (Homo sapiens, UniProt P51451); assay: KINOMEscan 1 μM, BLK; assay type: binding; conditions: 1000 nM; Entrez BLK; read-out: Percent Control
T15 construct: purchased Eurofins DiscoverX KINOMEscan
From the text: as §1

DYRK1A = target: T16, DYRK1A (Homo sapiens, UniProt Q13627); assay: KINOMEscan 1 μM, DYRK1A; assay type: binding; conditions: 1000 nM; Entrez DYRK1A; read-out: Percent Control
T16 construct: purchased Eurofins DiscoverX KINOMEscan
From the text: as §1

ULK2 = target: T17, ULK2 (Homo sapiens, UniProt Q8IYT8); assay: KINOMEscan at 1 μM, ULK2; assay type: binding; conditions: 1000 nM, read-out: Percent Control
T17 construct: purchased Eurofins DiscoverX KINOMEscan
From the text: (§2) Supplement cells-12-00287-s001.zip/File S2. KinomeScan data for the CAMKK2 probe and negative control.xlsx, sheet "SGC-CAMKK2-1N" | column: Percent Control

GRK1 = target: T18, GRK1 (Homo sapiens, UniProt Q15835); assay: KINOMEscan at 1 μM, GRK1; assay type: binding; conditions: 1000 nM, read-out: Percent Control
T18 construct: purchased Eurofins DiscoverX KINOMEscan
From the text: as §2

PIM1 = target: T19, PIM1 (Homo sapiens, UniProt P11309); assay: KINOMEscan at 1 μM, PIM1; assay type: binding; conditions: 1000 nM, read-out: Percent Control
T19 construct: purchased Eurofins DiscoverX KINOMEscan
From the text: as §2

DCAMKL3 = target: T20, DCAMKL3 (Homo sapiens, UniProt Q9C098); assay: KINOMEscan at 1 μM, DCAMKL3; assay type: binding; conditions: 1000 nM, read-out: Percent Control
T20 construct: purchased Eurofins DiscoverX KINOMEscan
From the text: as §2

EGFR(T790M) = target: T21, EGFR(T790M) (Homo sapiens, UniProt P00533, T790M); assay: KINOMEscan at 1 μM, EGFR(T790M); assay type: binding; conditions: 1000 nM, read-out: Percent Control
T21 construct: purchased Eurofins DiscoverX KINOMEscan
From the text: as §2

AURKC = target: T22, AURKC (Homo sapiens, UniProt Q9UQB9); assay: KINOMEscan at 1 μM, AURKC; assay type: binding; conditions: 1000 nM, read-out: Percent Control
T22 construct: purchased Eurofins DiscoverX KINOMEscan
From the text: as §2

GRK3 = target: T23, GRK3 (Homo sapiens, UniProt P35626); assay: KINOMEscan at 1 μM, GRK3; assay type: binding; conditions: 1000 nM, read-out: Percent Control
T23 construct: purchased Eurofins DiscoverX KINOMEscan
From the text: as §2

DAPK3 = target: T24, DAPK3 (Homo sapiens, UniProt O43293); assay: KINOMEscan at 1 μM, DAPK3; assay type: binding; conditions: 1000 nM, read-out: Percent Control
T24 construct: purchased Eurofins DiscoverX KINOMEscan
From the text: as §2

EPHB2 = target: T25, EPHB2 (Homo sapiens, UniProt P29323); assay: KINOMEscan binding assay at 1 μM, EPHB2; conditions: Compound Concentration 1000 nM; read-out: Percent Control
T25 construct: purchased Eurofins DiscoverX KINOMEscan
From the text: as §2

NLK = target: T26, NLK (Homo sapiens, UniProt Q9UBE8); assay: KINOMEscan at 1 μM, NLK; assay type: binding; conditions: 1000 nM, read-out: Percent Control
T26 construct: purchased Eurofins DiscoverX KINOMEscan
From the text: as §2

ERK1 = target: T27, ERK1 (Homo sapiens, UniProt P27361); assay: KINOMEscan at 1 μM, ERK1; assay type: binding; conditions: 1000 nM, read-out: Percent Control
T27 construct: purchased Eurofins DiscoverX KINOMEscan
From the text: as §2

S6K1 = target: T28, S6K1 (Homo sapiens, UniProt P23443); assay: KINOMEscan at 1 μM, S6K1; assay type: binding; conditions: 1000 nM, read-out: Percent Control
T28 construct: purchased Eurofins DiscoverX KINOMEscan
From the text: as §2

WEE1 = target: T29, WEE1 (Homo sapiens, UniProt P30291); assay: KINOMEscan at 1 μM, WEE1; assay type: binding; conditions: 1000 nM, read-out: Percent Control
T29 construct: purchased Eurofins DiscoverX KINOMEscan
From the text: as §2

MLK2 = target: T30, MLK2 (Homo sapiens, UniProt Q02779); assay: KINOMEscan binding assay at 1 μM, MLK2; conditions: Compound Concentration 1000 nM; read-out: Percent Control
T30 construct: purchased Eurofins DiscoverX KINOMEscan
From the text: as §2

MAP4K4 = target: T31, MAP4K4 (Homo sapiens, UniProt O95819); assay: KINOMEscan at 1 μM, MAP4K4; assay type: binding; conditions: 1000 nM, read-out: Percent Control
T31 construct: purchased Eurofins DiscoverX KINOMEscan
From the text: as §2

CSNK2A2 = target: T32, CSNK2A2 (Homo sapiens, UniProt P19784); assay: KINOMEscan at 1 μM, CSNK2A2; assay type: binding; conditions: 1000 nM, read-out: Percent Control
T32 construct: purchased Eurofins DiscoverX KINOMEscan
From the text: as §2

ITK = target: T33, ITK (Homo sapiens, UniProt Q08881); assay: KINOMEscan binding assay at 1 μM, ITK; conditions: Compound Concentration 1000 nM; read-out: Percent Control
T33 construct: purchased Eurofins DiscoverX KINOMEscan
From the text: as §2

ERK2 = target: T34, ERK2 (Homo sapiens, UniProt P28482); assay: KINOMEscan binding assay at 1 μM, ERK2; conditions: Compound Concentration 1000 nM; read-out: Percent Control
T34 construct: purchased Eurofins DiscoverX KINOMEscan
From the text: as §2

T33 sequence (Q08881 whole entry): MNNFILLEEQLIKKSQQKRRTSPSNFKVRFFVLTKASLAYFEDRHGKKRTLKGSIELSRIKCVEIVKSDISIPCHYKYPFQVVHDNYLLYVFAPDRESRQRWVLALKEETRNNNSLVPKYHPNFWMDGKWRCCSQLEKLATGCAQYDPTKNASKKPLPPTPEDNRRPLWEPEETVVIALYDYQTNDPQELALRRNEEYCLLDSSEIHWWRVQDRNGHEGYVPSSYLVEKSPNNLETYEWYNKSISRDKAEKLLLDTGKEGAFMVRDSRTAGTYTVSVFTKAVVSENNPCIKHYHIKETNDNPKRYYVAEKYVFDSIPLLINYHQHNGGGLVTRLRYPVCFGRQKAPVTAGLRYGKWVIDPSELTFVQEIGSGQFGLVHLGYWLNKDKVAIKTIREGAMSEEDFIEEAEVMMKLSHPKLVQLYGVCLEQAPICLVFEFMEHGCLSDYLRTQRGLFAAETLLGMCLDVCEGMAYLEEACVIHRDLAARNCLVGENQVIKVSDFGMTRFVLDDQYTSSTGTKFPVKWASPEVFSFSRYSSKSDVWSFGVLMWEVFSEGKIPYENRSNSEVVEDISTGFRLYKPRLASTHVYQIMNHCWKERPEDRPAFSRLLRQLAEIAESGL
T23 sequence (P35626 whole entry): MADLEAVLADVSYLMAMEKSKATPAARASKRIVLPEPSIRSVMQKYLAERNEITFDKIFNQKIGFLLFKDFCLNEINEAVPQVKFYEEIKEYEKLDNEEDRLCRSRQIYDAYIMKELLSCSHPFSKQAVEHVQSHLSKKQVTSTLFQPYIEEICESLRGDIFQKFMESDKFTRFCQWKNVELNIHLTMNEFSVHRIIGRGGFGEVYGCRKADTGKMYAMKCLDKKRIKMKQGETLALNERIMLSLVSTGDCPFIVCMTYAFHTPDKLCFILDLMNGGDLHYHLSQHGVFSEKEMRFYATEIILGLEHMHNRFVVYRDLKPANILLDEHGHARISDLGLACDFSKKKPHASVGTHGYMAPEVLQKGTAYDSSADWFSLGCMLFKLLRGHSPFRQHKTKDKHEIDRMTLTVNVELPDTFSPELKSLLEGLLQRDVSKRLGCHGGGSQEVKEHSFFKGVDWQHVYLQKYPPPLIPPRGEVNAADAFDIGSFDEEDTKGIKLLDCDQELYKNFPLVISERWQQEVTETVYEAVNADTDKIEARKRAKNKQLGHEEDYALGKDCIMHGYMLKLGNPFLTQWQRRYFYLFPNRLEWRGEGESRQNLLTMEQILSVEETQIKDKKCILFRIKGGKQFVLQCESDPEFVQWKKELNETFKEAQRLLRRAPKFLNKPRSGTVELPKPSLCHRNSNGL
T25 sequence (P29323 19-1055): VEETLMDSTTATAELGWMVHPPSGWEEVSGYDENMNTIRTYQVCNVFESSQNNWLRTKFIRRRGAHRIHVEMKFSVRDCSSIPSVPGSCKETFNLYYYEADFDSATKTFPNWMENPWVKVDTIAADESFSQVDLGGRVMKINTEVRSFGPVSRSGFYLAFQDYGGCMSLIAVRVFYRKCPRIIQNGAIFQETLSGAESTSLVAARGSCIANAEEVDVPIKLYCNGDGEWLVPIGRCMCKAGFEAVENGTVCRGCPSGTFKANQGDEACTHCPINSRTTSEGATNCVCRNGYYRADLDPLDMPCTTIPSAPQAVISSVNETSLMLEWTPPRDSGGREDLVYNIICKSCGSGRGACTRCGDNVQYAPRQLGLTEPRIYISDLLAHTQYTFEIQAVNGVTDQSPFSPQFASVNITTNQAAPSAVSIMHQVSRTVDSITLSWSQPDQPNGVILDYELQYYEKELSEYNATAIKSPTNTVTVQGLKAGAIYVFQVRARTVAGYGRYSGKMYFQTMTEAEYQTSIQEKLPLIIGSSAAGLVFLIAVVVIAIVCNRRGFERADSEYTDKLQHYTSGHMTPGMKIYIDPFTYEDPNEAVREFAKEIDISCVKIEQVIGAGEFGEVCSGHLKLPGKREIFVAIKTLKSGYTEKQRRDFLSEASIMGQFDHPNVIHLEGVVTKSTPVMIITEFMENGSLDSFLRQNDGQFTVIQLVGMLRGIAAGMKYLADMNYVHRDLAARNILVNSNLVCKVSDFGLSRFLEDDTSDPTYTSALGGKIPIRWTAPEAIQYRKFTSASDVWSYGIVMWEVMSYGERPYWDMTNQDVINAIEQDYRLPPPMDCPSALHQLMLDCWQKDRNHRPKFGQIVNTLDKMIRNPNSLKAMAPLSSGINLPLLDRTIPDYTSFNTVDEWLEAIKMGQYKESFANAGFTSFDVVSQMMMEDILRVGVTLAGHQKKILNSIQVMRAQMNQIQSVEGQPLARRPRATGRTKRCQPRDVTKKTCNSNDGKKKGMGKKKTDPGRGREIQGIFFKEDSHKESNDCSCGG
T18 sequence (Q15835 whole entry): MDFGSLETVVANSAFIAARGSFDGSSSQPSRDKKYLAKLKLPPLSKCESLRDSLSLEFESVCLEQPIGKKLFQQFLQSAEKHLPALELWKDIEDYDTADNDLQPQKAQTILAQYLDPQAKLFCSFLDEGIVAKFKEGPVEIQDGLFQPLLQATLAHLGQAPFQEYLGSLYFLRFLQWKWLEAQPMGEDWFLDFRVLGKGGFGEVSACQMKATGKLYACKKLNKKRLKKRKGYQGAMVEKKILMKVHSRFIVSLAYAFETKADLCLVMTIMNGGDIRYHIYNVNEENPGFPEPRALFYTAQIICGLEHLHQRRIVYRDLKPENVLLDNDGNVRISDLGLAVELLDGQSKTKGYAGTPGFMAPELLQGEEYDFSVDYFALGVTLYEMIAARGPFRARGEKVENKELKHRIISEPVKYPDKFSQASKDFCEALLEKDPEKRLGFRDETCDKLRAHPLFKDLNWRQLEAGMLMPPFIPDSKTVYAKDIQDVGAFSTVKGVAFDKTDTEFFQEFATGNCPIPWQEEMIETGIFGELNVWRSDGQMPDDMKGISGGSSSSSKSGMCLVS
T13 sequence (P49760 whole entry): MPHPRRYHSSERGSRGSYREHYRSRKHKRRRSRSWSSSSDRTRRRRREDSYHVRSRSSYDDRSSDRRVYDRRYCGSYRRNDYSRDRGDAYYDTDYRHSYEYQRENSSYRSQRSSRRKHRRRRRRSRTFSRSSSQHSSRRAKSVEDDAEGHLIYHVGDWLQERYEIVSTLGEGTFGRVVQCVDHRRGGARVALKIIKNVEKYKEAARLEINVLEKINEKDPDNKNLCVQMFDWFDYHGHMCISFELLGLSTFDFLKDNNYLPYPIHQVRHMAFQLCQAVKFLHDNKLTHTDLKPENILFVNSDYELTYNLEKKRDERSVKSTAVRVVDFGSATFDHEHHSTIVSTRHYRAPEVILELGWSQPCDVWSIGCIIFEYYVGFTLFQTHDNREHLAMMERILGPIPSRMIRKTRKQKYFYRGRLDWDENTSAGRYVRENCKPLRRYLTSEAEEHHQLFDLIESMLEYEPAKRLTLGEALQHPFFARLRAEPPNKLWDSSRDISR
T30 sequence (Q02779 whole entry): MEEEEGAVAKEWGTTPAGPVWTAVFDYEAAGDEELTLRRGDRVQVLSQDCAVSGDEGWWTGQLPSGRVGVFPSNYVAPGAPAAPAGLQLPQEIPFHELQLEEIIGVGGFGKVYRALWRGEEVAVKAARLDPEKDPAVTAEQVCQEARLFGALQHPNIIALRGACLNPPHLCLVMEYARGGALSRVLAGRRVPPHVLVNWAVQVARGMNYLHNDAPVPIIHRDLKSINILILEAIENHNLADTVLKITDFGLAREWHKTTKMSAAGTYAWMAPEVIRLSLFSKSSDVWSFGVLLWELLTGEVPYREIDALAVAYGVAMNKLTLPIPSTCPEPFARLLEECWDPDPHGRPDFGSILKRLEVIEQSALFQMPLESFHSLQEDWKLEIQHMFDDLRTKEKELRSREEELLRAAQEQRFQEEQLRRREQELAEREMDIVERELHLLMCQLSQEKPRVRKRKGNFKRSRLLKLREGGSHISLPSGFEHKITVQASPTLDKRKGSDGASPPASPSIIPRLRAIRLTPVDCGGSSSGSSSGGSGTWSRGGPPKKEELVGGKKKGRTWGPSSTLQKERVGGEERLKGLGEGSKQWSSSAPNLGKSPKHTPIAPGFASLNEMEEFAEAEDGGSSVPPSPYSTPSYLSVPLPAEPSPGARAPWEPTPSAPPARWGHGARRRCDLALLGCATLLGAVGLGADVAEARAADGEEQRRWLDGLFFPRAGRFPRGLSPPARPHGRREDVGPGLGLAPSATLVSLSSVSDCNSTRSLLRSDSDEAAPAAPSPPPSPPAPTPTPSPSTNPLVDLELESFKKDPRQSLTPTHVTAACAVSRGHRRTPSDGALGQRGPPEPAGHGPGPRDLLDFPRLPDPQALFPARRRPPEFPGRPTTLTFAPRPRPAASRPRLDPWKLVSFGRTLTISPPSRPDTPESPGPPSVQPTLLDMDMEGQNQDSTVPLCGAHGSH
T26 sequence (Q9UBE8 whole entry): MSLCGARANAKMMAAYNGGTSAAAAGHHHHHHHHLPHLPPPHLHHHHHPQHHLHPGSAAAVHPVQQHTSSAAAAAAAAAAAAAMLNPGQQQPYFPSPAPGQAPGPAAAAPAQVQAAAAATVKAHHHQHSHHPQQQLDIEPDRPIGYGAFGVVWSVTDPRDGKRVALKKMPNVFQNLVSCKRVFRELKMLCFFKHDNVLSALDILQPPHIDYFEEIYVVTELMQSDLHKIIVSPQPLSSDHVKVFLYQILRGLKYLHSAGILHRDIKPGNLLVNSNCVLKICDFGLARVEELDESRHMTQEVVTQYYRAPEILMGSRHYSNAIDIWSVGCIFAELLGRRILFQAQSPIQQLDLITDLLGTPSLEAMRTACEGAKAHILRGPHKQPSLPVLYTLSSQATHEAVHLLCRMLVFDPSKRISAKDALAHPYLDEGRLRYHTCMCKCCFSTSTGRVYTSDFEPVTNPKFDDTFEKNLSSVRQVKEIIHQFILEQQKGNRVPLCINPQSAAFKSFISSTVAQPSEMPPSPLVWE

Cc1cccc(-c2cnc3occ(-c4ccc(C(=O)O)c(C5CCCC5)c4)c3c2)c1 [SGC-CAMKK2-1 (YL-36)]
remaining binding at 1 µM (MRCKB): 82% | remaining binding at 1 µM (EGFR(L858R)): 77% | remaining binding at 1 µM (FLT3(N841I)): 95% | remaining binding at 1 µM (TRKC): 81% | remaining binding at 1 µM (LRRK2(G2019S)): 100% | remaining binding at 1 µM (PKN1): 84% | remaining binding at 1 µM (CSNK2A1): 94% | remaining binding at 1 µM (CDK4-cyclinD1): 100% | remaining binding at 1 µM (MAP3K1): 100% | remaining binding at 1 µM (EGFR(L861Q)): 47% | remaining binding at 1 µM (SIK): 100% | remaining binding at 1 µM (PIK3CA(Q546K)): 100% | remaining binding at 1 µM (CLK2): 79% | remaining binding at 1 µM (MEK4): 100% | remaining binding at 1 µM (BLK): 70% | remaining binding at 1 µM (DYRK1A): 100%

O=C(O)c1ccc(-c2coc3ncc(-c4ccccc4)cc23)cc1Cl [SGC-CAMKK2-1N (UNC-YL-83)]
remaining binding at 1 µM (ULK2): 71% | remaining binding at 1 µM (GRK1): 92% | remaining binding at 1 µM (PIM1): 75% | remaining binding at 1 µM (DCAMKL3): 100% | remaining binding at 1 µM (EGFR(T790M)): 85% | remaining binding at 1 µM (AURKC): 90% | remaining binding at 1 µM (GRK3): 66% | remaining binding at 1 µM (DAPK3): 71% | remaining binding at 1 µM (EPHB2): 100% | remaining binding at 1 µM (NLK): 84% | remaining binding at 1 µM (ERK1): 95% | remaining binding at 1 µM (S6K1): 76% | remaining binding at 1 µM (WEE1): 84% | remaining binding at 1 µM (MLK2): 100% | remaining binding at 1 µM (MAP4K4): 94% | remaining binding at 1 µM (CSNK2A2): 98% | remaining binding at 1 µM (ITK): 100% | remaining binding at 1 µM (ERK2): 100%
